Reference: US8426408B2, “Pyrimidine inhibitors of kinases” (AbbVie Inc., priority 2009, dated 2013)

Assays:
KDR [1] = biological target: T1, KDR (Homo sapiens, UniProt P35968); test: KDR cellular assay (KDR receptor phosphorylation ELISA); assay type: cell-based; design: expressed in transfected cells; host or cells: 3T3 (embryonic mouse) cells; details: KDR transfected 3T3 (embryonic mouse) cells, VEGF stimulated; read-out: IC50 inhibition of KDR phosphorylation
Description: The ability of compounds to inhibit KDR receptor phosphorylation in cells was measured by ELISA following the protocol outlined below.
KDR transfected 3T3 (embryonic mouse) cells added to 96-well tissue culture plates at 20,000 cells/well.
Plates were covered and placed in a 37° C. humidified incubator with 5% CO2 overnight, to allow cells to adhere.
Coating solution was prepared: 500 l/vial PBS was added to 2 vials of anti-KDR antibody, then 1 ml solubilized anti-KDR antibody into 29.0 ml bicarbonate buffer. Coating solution was added to all wells at 150 µl/well (final amount anti-KDR=1 µg/well) and placed at 4° C. overnight.
Blocking solution (2.1 g dry milk+42 ml PBS=5% milk in PBS) was placed on a stir plate for 30 min.
Assay plates were washed twice with PBST, and 200 µl/well blocking solution was added to all wells. Assay plates were covered with plate sealers and placed in a 37° C. microplate chamber until just before cell lysate transfer.
Compound stocks were thawed or prepared in DMSO as 5 mM stocks.
Dilution medium (DM, 1% DMSO in DMEM) and compounds were diluted by half-log increments for concentration response analysis.
Conditioned media was dumped from the tissue culture plates, and plates were blotted dry.
Standard solution in DM, compound dilutions in DM, or DM (for high control, negative control, and reference wells) were added to the tissue culture plates, 25 µl/well. Each pair of tissue culture plates was prepared with the same compounds, solutions, and layout; and will be combined later; Tissue culture plates were covered and placed in the 37° C. microplate chamber for 20 min.
VEGF solution was prepared: 110 l VEGF stock+10.89 ml DM=100 ng/ml VEGF
VEGF solution or DM (for reference wells) was added to the tissue culture plates, 25 μl/well.
Tissue culture plates were covered and placed in the 37° C. microplate chamber for 10 min.
RIPA buffer was prepared (240 l NaVO3 stock+240 l PIC stock+24 l NaF stock+23.496 ml RIPA base) and added to the tissue culture plates, 50 µl/well.
Tissue culture plates were covered and placed on a Labline plate shaker for 10 min (speed about 5).
Assay plates were washed twice with PBST.
Cell lysates from matching wells of each pair of tissue culture plates were combined to =200 µl/well, and were pipetted up and down to mix. Cell lysates were transferred to the assay plates using the same layouts, 170 µl/well.
Assay plates were covered with plate sealers and placed on a Labline plate shaker for 2 hr (speed about 5).
Assay plates were washed 5 times with PBST.
Biotin antibody solution was prepared (16 l biotin antibody stock+32 ml PBST=2000× dilution) and added to the assay plates, 150 µl/well.
Assay plates were covered with plate sealers and placed on a Labline plate shaker for 90 min
Streptavidin-HRP solution was prepared (16 l streptavidin-HRP stock+32 ml PBST=2000× dilution) and added to the assay plates, 150 µl/well.
Assay plates were covered with plate sealers and placed on a Labline plate shaker for 60 min
Substrate was added to the assay plates, 100 µl/well.
As assay plates developed, the plates were each monitored on a Molecular Devices Spectramax set to 650 nm, until the signal in the high control wells was around 0.6 OD and the signal in the negative control wells was around 0.1-0.15 OD.
Stop solution was added to the assay plates, 100 µl/well.
The plates were read on a Molecular Devices Spectramax set to 450 nm.
Data was calculated by Assay Explorer, using same-plate high control wells as 0% and reference standard wells as 100% inhibition of KDR phosphorylation. IC50 values were calculated by non-linear regression analysis of the concentration response data.
Target sequence in this assay (P35968 20-1356): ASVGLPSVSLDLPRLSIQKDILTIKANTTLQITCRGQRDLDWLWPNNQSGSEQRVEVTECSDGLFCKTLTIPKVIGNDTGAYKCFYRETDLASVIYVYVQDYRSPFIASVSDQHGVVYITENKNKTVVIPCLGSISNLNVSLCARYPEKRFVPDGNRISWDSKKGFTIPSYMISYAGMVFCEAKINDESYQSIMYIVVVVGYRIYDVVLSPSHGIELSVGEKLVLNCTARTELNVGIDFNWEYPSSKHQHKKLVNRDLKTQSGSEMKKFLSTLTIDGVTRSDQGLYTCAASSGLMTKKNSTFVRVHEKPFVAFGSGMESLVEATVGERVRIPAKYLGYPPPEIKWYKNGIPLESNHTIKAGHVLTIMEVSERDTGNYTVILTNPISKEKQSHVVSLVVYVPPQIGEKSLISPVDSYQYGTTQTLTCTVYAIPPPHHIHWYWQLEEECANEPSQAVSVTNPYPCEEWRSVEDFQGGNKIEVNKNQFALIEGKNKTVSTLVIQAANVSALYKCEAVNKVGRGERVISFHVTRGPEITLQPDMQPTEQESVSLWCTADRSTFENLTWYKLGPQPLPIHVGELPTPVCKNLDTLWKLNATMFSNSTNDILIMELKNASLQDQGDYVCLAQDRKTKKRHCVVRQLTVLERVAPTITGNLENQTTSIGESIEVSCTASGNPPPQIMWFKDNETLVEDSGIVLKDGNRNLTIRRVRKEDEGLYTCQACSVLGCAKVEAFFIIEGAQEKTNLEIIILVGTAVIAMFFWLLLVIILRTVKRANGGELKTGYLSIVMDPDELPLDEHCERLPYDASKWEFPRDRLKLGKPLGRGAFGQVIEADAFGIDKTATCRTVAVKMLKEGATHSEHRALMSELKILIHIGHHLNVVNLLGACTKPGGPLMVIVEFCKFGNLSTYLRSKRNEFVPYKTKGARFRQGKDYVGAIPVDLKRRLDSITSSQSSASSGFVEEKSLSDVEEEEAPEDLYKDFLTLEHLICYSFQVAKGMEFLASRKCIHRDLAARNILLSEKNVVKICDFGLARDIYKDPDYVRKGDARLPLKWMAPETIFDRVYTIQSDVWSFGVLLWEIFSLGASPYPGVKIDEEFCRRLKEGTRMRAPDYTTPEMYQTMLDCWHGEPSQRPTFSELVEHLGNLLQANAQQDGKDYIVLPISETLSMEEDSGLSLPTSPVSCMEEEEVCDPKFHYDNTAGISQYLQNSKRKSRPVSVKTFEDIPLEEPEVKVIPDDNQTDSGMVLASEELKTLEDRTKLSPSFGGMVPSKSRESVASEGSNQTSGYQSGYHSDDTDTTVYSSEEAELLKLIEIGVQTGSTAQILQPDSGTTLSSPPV

Aurora B = biological target: T2, Aurora B (Homo sapiens, UniProt Q96GD4); test: Aurora B enzyme inhibition (time-resolved fluorescence, histone H3 peptide); assay type: biochemical; details: 1 mM ATP
T2 construct: Active Aurora B enzyme (recombinant residues 1-344)
T2 sequence (Q96GD4 whole entry, the tested form may be a part): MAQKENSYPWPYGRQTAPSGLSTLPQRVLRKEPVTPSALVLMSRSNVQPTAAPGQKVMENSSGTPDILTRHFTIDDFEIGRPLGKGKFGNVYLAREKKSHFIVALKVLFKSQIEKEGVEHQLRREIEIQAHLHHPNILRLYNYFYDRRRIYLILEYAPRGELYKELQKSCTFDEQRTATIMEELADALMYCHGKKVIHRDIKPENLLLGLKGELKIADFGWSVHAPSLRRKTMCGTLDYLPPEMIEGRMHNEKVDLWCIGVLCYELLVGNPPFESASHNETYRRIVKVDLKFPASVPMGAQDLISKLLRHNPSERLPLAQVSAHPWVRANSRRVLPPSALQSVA
T2 sequence (Q9NQS7 826-918 partner limits assumed): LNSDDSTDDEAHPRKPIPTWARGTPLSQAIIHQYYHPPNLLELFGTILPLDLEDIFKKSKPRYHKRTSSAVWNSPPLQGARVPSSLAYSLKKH
Summary of the method: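 IC50s came from an exponential fit of inhibition against inhibitor concentration, with phosphorylation read as the 665/615 nm time-resolved fluorescence ratio after EDTA stop using Eu-anti-phospho-H3 and SA-APC. The 1 h reaction used Aurora B 1-344 plus GST-INCENP, biotin-histone H3 1-21 peptide and 1 mM ATP in pH 7.4 HEPES buffer.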

KDR [2] = biological target: T1, KDR; test: KDR HTRF in vitro kinase assay; assay type: biochemical; design: purified enzyme (His6-KDR 789-1354, MW 63 kD); His6 (N); details: 1 mM ATP; read-out: KDR enzyme inhibition data (Ki)
Summary of the method: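 His6-KDR 789-1354 (7 ng/well) with 0.5 μM biotinylated peptide substrate and 1 mM ATP in HEPES pH 7.1, MgCl2/MnCl2, 60 min at room temperature. EDTA-quenched, detected by streptavidin-XL-665 plus Eu-kryptate anti-phosphotyrosine HTRF after 3 h; IC50 from 620/665 nm ratio.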
Target sequence in this assay (P35968 789-1354): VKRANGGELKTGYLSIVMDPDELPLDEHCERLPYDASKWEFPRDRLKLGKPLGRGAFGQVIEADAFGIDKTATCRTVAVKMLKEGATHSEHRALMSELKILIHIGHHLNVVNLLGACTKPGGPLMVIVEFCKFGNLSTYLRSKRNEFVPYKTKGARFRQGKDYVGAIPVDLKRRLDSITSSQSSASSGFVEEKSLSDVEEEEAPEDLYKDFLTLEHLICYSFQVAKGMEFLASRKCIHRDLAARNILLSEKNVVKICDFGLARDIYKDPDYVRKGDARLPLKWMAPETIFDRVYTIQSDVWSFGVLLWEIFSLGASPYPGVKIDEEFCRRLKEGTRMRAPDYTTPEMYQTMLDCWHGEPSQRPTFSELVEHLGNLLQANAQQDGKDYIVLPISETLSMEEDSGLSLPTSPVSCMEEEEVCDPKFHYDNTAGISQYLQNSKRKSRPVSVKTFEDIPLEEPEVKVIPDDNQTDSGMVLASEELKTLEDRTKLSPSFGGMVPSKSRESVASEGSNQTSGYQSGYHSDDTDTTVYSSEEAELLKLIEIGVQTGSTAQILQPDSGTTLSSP

Aurora A = biological target: T3, Aurora A (Homo sapiens, UniProt O14965); test: Aurora A enzyme inhibition (time-resolved fluorescence, STK substrate-2); assay type: biochemical; details: 1 mM ATP
T3 sequence (O14965 1-403): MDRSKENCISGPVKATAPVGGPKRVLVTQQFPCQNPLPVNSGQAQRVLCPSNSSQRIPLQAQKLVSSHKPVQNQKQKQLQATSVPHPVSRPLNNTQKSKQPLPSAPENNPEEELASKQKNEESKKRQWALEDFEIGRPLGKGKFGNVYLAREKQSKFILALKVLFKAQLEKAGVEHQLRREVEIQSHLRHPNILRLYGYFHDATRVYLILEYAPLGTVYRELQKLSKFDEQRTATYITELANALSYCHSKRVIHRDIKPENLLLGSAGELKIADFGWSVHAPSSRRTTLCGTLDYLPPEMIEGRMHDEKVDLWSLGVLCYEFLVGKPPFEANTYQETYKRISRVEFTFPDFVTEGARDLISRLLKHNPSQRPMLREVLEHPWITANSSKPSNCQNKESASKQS
Summary of the method: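 Phosphorylation of biotinylated STK substrate-2 at 1 mM ATP, 1 h, Hepes buffer pH 7.4 (MgCl2, sodium orthovanadate, Triton X-100). After EDTA quench, 665/615 nm time-resolved fluorescence ratio read via europium anti-phospho antibody and SA-XL665; IC50 from exponential fit versus inhibitor concentration.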

Row | Molecule | IC50 (KDR [1]) [nM] | Ki (Aurora B) [nM] | Ki (KDR [2]) [nM] | Ki (Aurora A) [nM]
1 | 5-chloro-N^2-(1H-indazol-5-yl)-N^2-{1-[(3R)-pyrrolidin-3-yl]-1H-pyrazol-4-yl}pyrimidine-2,4-diamine [Example 181] | 100 to 1000 | < 100 | < 100 | < 100
2 | Cn1cc(Nc2ncc(Cl)c(N[C@@H]3[C@H](C(N)=O)[C@H]4C=C[C@@H]3C4)n2)cn1.Cn1cc(Nc2ncc(Cl)c(N[C@H]3[C@@H](C(N)=O)[C@@H]4C=C[C@H]3C4)n2)cn1 (mixture of isomers) [Example 27, (1S,2S,3R,4R)-3-({5-chloro-2-[(1-methyl-1H-pyrazol-4-yl)amino]pyrimidin-4-yl}amino)bicyclo[2.2.1]hept-5-ene-2-carboxamide and (1R,2R,3S,4S)-3-({5-chloro-2-[(1-methyl-1H-pyrazol-4-yl)amino]pyrimidin-4-yl}amino)bicyclo[2.2.1]hept-5-ene-2-carboxamide] | < 100 | < 100 | < 100 | < 100
3 | Cn1cc(Nc2ncc(Br)c(N[C@@H]3[C@H](C(N)=O)[C@H]4C=C[C@@H]3C4)n2)cn1.Cn1cc(Nc2ncc(Br)c(N[C@H]3[C@@H](C(N)=O)[C@@H]4C=C[C@H]3C4)n2)cn1 (mixture of isomers) [Example 28, (1S,2S,3R,4R)-3-({5-bromo-2-[(1-methyl-1H-pyrazol-4-yl)amino]pyrimidin-4-yl}amino)bicyclo[2.2.1]hept-5-ene-2-carboxamide and (1R,2R,3S,4S)-3-({5-bromo-2-[(1-methyl-1H-pyrazol-4-yl)amino]pyrimidin-4-yl}amino)bicyclo[2.2.1]hept-5-ene-2-carboxamide] | < 100 | < 100 | < 100 | < 100
4 | NC(=O)[C@@H]1[C@H](Nc2nc(Nc3cnn(CCO)c3)ncc2C(F)(F)F)[C@H]2C=C[C@@H]1C2.NC(=O)[C@H]1[C@@H](Nc2nc(Nc3cnn(CCO)c3)ncc2C(F)(F)F)[C@@H]2C=C[C@H]1C2 (mixture of isomers) [Example 29, (1S,2S,3R,4R)-3-{[2-{[1-(2-hydroxyethyl)-1H-pyrazol-4-yl]amino}-5-(trifluoromethyl)pyrimidin-4-yl]amino}bicyclo[2.2.1]hept-5-ene-2-carboxamide and (1R,2R,3S,4S)-3-{[2-{[1-(2-hydroxyethyl)-1H-pyrazol-4-yl]amino}-5-(trifluoromethyl)pyrimidin-4-yl]amino}bicyclo[2.2.1]hept-5-ene-2-carboxamide] | 100 to 1000 | 100 to 1000 | < 100 | < 100
5 | Cn1cc(Nc2ncc(C(N)=O)c(NC3C4C=CC(C4)C3C(N)=O)n2)cn1 (mixture of isomers) [Example 86, 4-{[(1S,2S,3R,4R)-3-carbamoylbicyclo[2.2.1]hept-5-ene-2-yl]amino}-2-[(1-methyl-1H-pyrazol-4-yl)amino]pyrimidine-5-carboxamide and 4-{[(1R,2R,3S,4S)-3-carbamoylbicyclo[2.2.1]hept-5-ene-2-yl]amino}-2-[(1-methyl-1H-pyrazol-4-yl)amino]pyrimidine-5-carboxamide] | 100 to 1000 | < 100 | 100 to 1000 | < 100
6 | Cc1nc(Nc2cnn(C)c2)nc(N[C@@H]2[C@H](C(N)=O)[C@H]3C=C[C@@H]2C3)c1Cl.Cc1nc(Nc2cnn(C)c2)nc(N[C@H]2[C@@H](C(N)=O)[C@@H]3C=C[C@H]2C3)c1Cl (mixture of isomers) [Example 125, (1S,2S,3R,4R)-3-({5-chloro-6-methyl-2-[(1-methyl-1H-pyrazol-4-yl)amino]pyrimidin-4-yl}amino)bicyclo[2.2.1]hept-5-ene-2-carboxamide and (1R,2R,3S,4S)-3-({5-chloro-6-methyl-2-[(1-methyl-1H-pyrazol-4-yl)amino]pyrimidin-4-yl}amino)bicyclo[2.2.1]hept-5-ene-2-carboxamide] | 100 to 1000 | < 100 | 100 to 1000 | 100 to 1000

Continued, values first:

Row | IC50 (KDR [1]) [nM] | Ki (Aurora B) [nM] | Ki (KDR [2]) [nM] | Ki (Aurora A) [nM] | Molecule
7 | 100 to 1000 | < 100 | < 100 | < 100 | CCn1cc(Nc2ncc(C(N)=O)c(NC3C4C=CC(C4)C3C(N)=O)n2)cn1 (mixture of isomers) [Example 87, 4-{[(1S,2S,3R,4R)-3-carbamoylbicyclo[2.2.1]hept-5-ene-2-yl]amino}-2-[(1-ethyl-1H-pyrazol-4-yl)amino]pyrimidine-5-carboxamide and 4-{[(1R,2R,3S,4S)-3-carbamoylbicyclo[2.2.1]hept-5-ene-2-yl]amino}-2-[(1-ethyl-1H-pyrazol-4-yl)amino]pyrimidine-5-carboxamide]
8 | 100 to 1000 | < 100 | 100 to 1000 | < 100 | CCn1cc(Nc2nc(C)c(Cl)c(N[C@@H]3[C@H](C(N)=O)[C@H]4C=C[C@@H]3C4)n2)cn1.CCn1cc(Nc2nc(C)c(Cl)c(N[C@H]3[C@@H](C(N)=O)[C@@H]4C=C[C@H]3C4)n2)cn1 (mixture of isomers) [Example 126, (1S,2S,3R,4R)-3-({5-chloro-2-[(1-ethyl-1H-pyrazol-4-yl)amino]-6-methylpyrimidin-4-yl}amino)bicyclo[2.2.1]hept-5-ene-2-carboxamide and (1R,2R,3S,4S)-3-({5-chloro-2-[(1-ethyl-1H-pyrazol-4-yl)amino]-6-methylpyrimidin-4-yl}amino)bicyclo[2.2.1]hept-5-ene-2-carboxamide]
9 | 100 to 1000 | – | – | – | CCn1cc(Nc2ncc(Cl)c(Nc3ccc4[nH]ncc4c3)n2)cn1 [Example 176, 5-chloro-N^2-(1-ethyl-1H-pyrazol-4-yl)-N^4-(1H-indazol-5-yl)pyrimidine-2,4-diamine]
